Experimental data from US20250288520A1, “Microemulsion Pharmaceutical Composition For Treatment Of Disorders Of The Anterior Segment Of The Eye” (SIFI S.P.A., priority 2022, published 2025).

Test: Bioavailability study in NZW rabbits after single dose topical administration, sorafenib content by LC-MS
Type: in vivo
Experimental: Bioavailability study in NZW rabbits after single dose administration (50 μL topical administration in the right eye) was conducted and content of sorafenib tosylate in plasma (PL), bulbar conjunctivae (BCJ), aqueous humor (AH), cornea (C), vitreous (V), retina (R), and sclera (SC) was evaluated after treatment at t=5, 15, 30, 60, 90, 120 min by LC-MS.
Thirty-six NZW male rabbits, weighing approximately 2 kg, were used in this study. The study was conducted in accordance with GLP standards at the test facility IRIS PHARMA. All animals were treated according to the Directive 2010/63/UE European Convention for the Protection of Vertebrate Animals used for Experimental and Other Scientific Purposes and to the ARVO Statement for the Use of Animals in Ophthalmic and Vision Research. All animals were housed individually in standard cages under identical temperature (18° C.±3° C.), relative humidity (45%-80%), and controlled enrichment conditions and exposed to a 12-h light and darkness cycle in continuously ventilated rooms (15-20 air volumes per hour). They received a standard dry pellet diet and water ad libitum. Only animals with no macroscopic ocular signs of irritation were involved in this study and randomly divided in six time-point groups of 6 animals each (Table 3).
Animals received a single 50 μL topical administration in the right eye and at the time-points listed in Table 3 they were anesthetized by an intramuscular injection of a mix xylazine/ketamine before euthanasia by an intracardiac injection of overdosed pentobarbital. The whole blood in EDTA anticoagulant tubes were sampled by intracardiac puncture, and plasma was prepared and frozen at −23° C.±7° C. Immediately after euthanasia, BCJ, AH, C, V, R, and SC were quickly and carefully dissected from both eyes and weighed, frozen in dry ice and at −23° C.±7° C. until assay. Content of sorafenib was determined in R and PL of both eyes in priority and in AH, BCJ, C, V and SC of both eyes following the rapid resolution liquid chromatography/tandem mass spectrometry method.

concentration at 120 min (male, NZW, rabbit, cornea, topical, 50 μL, 120 min (2 h) post treatment, SD=±596): 1710 ng/g | time of sorafenib maximum content in retina of treated eyes (single 50 μL instillation in right eye): 5 min | sorafenib maximum content in retina of treated eyes (single 50 μL instillation in right eye, 5 min after treatment): 170 ng/g | sorafenib in retina of left untreated eyes (single 50 μL instillation in right eye, all rabbits): no amount of sorafenib was detected | highest detected amount of sorafenib in plasma (two hours after treatment): 2 ng/g
Structure (SMILES): CNC(=O)c1cc(Oc2ccc(NC(=O)Nc3ccc(Cl)c(C(F)(F)F)c3)cc2)ccn1 [sorafenib]
